In ChEMBL document CHEMBL3882724 (2013):

Assays:
[1] = target: T1, Steroid 17-alpha-hydroxylase/17,20 lyase (Homo sapiens, UniProt P05093); assay: Inhibition of CYP17 in human testicular microsomes using 17alpha-hydroxypregnenolone as substrate assessed as decrease in DHEA levels after 90 mins by ELISA; parameters: species or system Testis
T1 sequence (P05093 whole entry): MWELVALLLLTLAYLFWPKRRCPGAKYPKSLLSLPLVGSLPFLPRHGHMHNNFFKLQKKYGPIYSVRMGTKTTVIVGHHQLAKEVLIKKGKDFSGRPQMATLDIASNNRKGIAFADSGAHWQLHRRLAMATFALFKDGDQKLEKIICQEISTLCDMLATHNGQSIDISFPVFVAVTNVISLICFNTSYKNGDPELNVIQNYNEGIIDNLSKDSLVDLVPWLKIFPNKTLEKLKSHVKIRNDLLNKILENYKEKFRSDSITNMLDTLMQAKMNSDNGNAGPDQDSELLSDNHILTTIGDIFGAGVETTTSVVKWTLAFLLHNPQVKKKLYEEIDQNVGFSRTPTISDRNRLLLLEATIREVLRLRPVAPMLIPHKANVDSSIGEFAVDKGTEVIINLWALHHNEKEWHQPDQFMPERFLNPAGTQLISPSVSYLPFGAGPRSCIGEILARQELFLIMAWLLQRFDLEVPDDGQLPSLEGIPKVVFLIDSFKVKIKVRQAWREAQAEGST

[2] = target: T1, Steroid 17-alpha-hydroxylase/17,20 lyase; assay: Inhibition of CYP17 in human testicular microsomes using 17alpha-hydroxypregnenolone as substrate assessed as decrease in DHEA levels at 1 nM after 90 mins by ELISA relative to control; parameters: species or system Testis
[3] = target: T2, CYP21 (steroid 21-hydroxylase) (Homo sapiens, UniProt P08686); assay: Inhibition of human CYP21 transfected in HEK293 cells assessed as decrease in conversion of progesterone to 11-deoxycorticosterone preincubated for 5 hrs followed by progesterone addition measured after 20 hrs by ELISA; format: cell-based; parameters: concentration or dose not given beside the values; settings: HEK293 cells transfected with human CYP21, probe progesterone
T2 sequence (P08686 whole entry): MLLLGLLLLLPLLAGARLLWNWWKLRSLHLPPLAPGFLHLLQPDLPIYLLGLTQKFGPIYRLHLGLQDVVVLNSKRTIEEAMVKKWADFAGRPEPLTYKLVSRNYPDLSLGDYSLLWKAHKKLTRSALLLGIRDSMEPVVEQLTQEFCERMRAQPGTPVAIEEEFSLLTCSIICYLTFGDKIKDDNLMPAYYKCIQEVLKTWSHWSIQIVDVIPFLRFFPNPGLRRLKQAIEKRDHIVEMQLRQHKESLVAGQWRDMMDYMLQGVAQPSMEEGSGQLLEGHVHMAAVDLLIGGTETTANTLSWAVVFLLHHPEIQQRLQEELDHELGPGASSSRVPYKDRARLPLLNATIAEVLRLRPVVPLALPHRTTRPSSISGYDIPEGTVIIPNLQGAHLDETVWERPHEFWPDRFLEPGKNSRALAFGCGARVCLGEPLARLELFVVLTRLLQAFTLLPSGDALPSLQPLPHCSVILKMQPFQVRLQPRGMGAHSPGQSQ

[4] = target: T1, Steroid 17-alpha-hydroxylase/17,20 lyase; assay: Inhibition of CYP17 in human H295R cells assessed as decrease in testosterone levels after 24 hrs by ELISA; format: cell-based
[5] = Half life in human liver microsomes at 1 uM by LC-MS/MS analysis
[6] = target: T1, Steroid 17-alpha-hydroxylase/17,20 lyase; assay: Inhibition of CYP17 in human testicular microsomes using 17alpha-hydroxypregnenolone as substrate assessed as decrease in DHEA levels at 10 nM after 90 mins by ELISA relative to control; parameters: species or system Testis; settings: 1.5 h
[7] = Half life in rat liver microsomes at 1 uM by LC-MS/MS analysis

SMILES | IC50 [1] [nM] | IC50 [2] [nM] | inhibition at 20 h [3] [%] | IC50 [4] [nM] | half-life at 1 µM [5] [min] | inhibition at 0.01 µM [6] [%] | half-life at 1 µM [7] [min]
CC1C[C@@H]2[C@H](CC[C@]3(C)C(c4cncc(F)c4)=CC[C@@H]23)[C@@]2(C)C=CC(=O)C=C12 (some centres undefined) | ≤ 11 | 10 to 100 | ≥ 50 | – | – | – | –
C[C@]12CC[C@H]3[C@@H](CC(F)C4(O)C[C@@H](O)CC[C@]34C)[C@@H]1CC=C2c1cncc(F)c1 (some centres undefined) | ≤ 11 | – | ≥ 50 | ≤ 15 | 1 to 50 | – | –
C[C@]12CC(O)CC1CC[C@@H]1[C@@H]2CC[C@]2(C)C(c3cccnc3)=CC[C@@H]12 (some centres undefined) | ≤ 11 | – | ≥ 50 | ≤ 15 | 1 to 50 | – | –
CC1=C2CC[C@H]3C4=CC=C(c5cccnc5)[C@@]4(C)CC[C@@H]3[C@@]2(C)CCC1=O | – | > 100 | ≥ 50 | – | – | – | –
C[C@]12CCCC(=O)C1CC[C@@H]1[C@@H]2CC[C@]2(C)C(c3cccnc3)=CC[C@@H]12 (some centres undefined) | ≤ 11 | – | – | ≤ 15 | – | ≥ 80 | –
C=C1C[C@H]2C3=CC=C(c4cccnc4)[C@@]3(C)CC[C@@H]2[C@@]2(C)C=CC(=O)C=C12 | – | ≤ 10 | – | – | 1 to 50 | – | –
C[C@]12CC[C@H]3[C@@H](CC4(CC4)C4=CC(=O)CC[C@@]43C)C1=CC=C2c1cccnc1 | – | ≤ 10 | – | – | – | – | –
C[C@]12CC[C@H]3[C@@H](CC4CC45C[C@@H](O)CC[C@]35C)[C@@H]1CC=C2c1cccnc1 (some centres undefined) | ≤ 11 | – | ≥ 50 | ≤ 15 | 1 to 50 | – | –
C[C@]12CC[C@H]3[C@@H](CC4(CC4)C4=CC(=O)CC[C@@]43C)C1=CC=C2c1cncc(F)c1 | – | 10 to 100 | – | – | – | – | –
C[C@]12CC/C(=N\O)C=C1C1(CC1)C[C@@H]1[C@@H]2CC[C@]2(C)C(c3cccnc3)=CC[C@@H]12 | – | > 100 | 10 to 50 | – | – | – | –
CN1CC[C@@]2(C)C(=CC1=O)C1CC1[C@H]1C3=CC=C(c4cccnc4)[C@@]3(C)CC[C@@H]12 (some centres undefined) | – | 10 to 100 | – | – | – | – | –
C[C@]12CC[C@H]3[C@@H](CC(C4CC4)C4=CC(=O)CC[C@@]43C)C1=CC=C2c1cccnc1 (some centres undefined) | – | > 100 | 10 to 50 | – | – | – | –
COc1cncc(C2=CC=C3[C@@H]4CC=C5C[C@@H](O)CC[C@]5(C)[C@H]4CC[C@]23C)c1 | ≤ 11 | – | – | ≤ 15 | ≥ 50 | ≥ 80 | ≥ 50
CC1C[C@H]2C3=CC=C(c4cncc(F)c4)[C@@]3(C)CC[C@@H]2[C@@]2(C)CCNC(=O)C=C12 (some centres undefined) | – | 10 to 100 | 10 to 50 | – | 1 to 50 | – | –
C[C@]12CCC(=O)C=C1C=C[C@@H]1[C@@H]2CC[C@]2(C)C(c3cccnc3)=CC[C@@H]12 | – | > 100 | ≥ 50 | – | 1 to 50 | – | –
C=C1C[C@H]2C3=CC=C(c4cncc(F)c4)[C@@]3(C)CC[C@@H]2[C@@]2(C)CCC(=O)C=C12 | – | 10 to 100 | – | – | – | – | –
C[C@]12CCNC(=O)C=C1C1CC1[C@@H]1[C@@H]2CC[C@]2(C)C(c3cncc(F)c3)=CC[C@@H]12 (some centres undefined) | ≤ 11 | – | ≥ 50 | ≤ 15 | 1 to 50 | – | –
C[C@]12CC(O)CC1CC[C@@H]1[C@@H]2CC[C@]2(C)C(c3cncc(F)c3)=CC[C@@H]12 (some centres undefined) | ≤ 11 | – | 10 to 50 | ≤ 15 | ≥ 50 | – | –
C[C@]12CCNC(=O)C=C1CC[C@@H]1[C@@H]2CC[C@]2(C)C(c3cncc(C(F)F)c3)=CC[C@@H]12 | ≤ 11 | – | ≥ 50 | ≤ 15 | 1 to 50 | – | –
C=C1C[C@H]2C3=CC=C(c4cccnc4)[C@@]3(C)CC[C@@H]2[C@@]2(C)CCC(=O)C=C12 | – | 10 to 100 | – | – | – | – | –

SMILES | IC50 [1] [nM] | IC50 [2] [nM] | inhibition at 20 h [3] [%] | IC50 [4] [nM] | half-life at 1 µM [5] [min] | inhibition at 0.01 µM [6] [%] | half-life at 1 µM [7] [min]
C[C@]12CCC(=O)C=C1C=C[C@@H]1[C@@H]2CC[C@]2(C)C(c3cncc(F)c3)=CC[C@@H]12 | ≤ 11 | – | ≥ 50 | ≤ 15 | 1 to 50 | – | –
CC1C[C@H]2C3=CC=C(c4cccnc4)[C@@]3(C)CC[C@@H]2[C@@]2(C)CCN(C)C(=O)C=C12 (some centres undefined) | – | 10 to 100 | – | – | – | – | –
C[C@]12CC[C@H](O)CC1=CC[C@@H]1[C@@H]2CC[C@]2(C)C(c3cncc(C(F)F)c3)=CC[C@@H]12 | ≤ 11 | – | ≥ 50 | ≤ 15 | ≥ 50 | – | –
CN1CC[C@@]2(C)C(=CC1=O)CC[C@H]1C3=CC=C(c4cncc(F)c4)[C@@]3(C)CC[C@@H]12 | – | > 100 | – | – | – | – | –
C[C@]12C=C/C(=N\O)C=C1C1(CC1)C[C@@H]1[C@@H]2CC[C@]2(C)C(c3cccnc3)=CC[C@@H]12 | – | > 100 | 10 to 50 | – | – | – | –
CC1C[C@@H]2[C@H](CC[C@]3(C)C(c4cccnc4)CC[C@@H]23)[C@@]2(C)CCNC(=O)C=C12 (some centres undefined) | – | ≤ 10 | – | – | 1 to 50 | – | –
CC(=O)N[C@@H]1CC[C@@]2(C)C(=CC[C@@H]3[C@@H]2CC[C@]2(C)C(c4cccnc4)=CC[C@@H]32)C1 | ≤ 11 | – | ≥ 50 | ≤ 15 | 1 to 50 | – | –
C[C@]12CC[C@H]3[C@@H](CC[C@H]4C[C@@H](O)CC[C@@]43C)C1=CC=C2n1ccnc1 | ≤ 11 | – | – | ≤ 15 | ≥ 50 | ≥ 80 | 10 to 60
CC(=O)O[C@H]1CC[C@@]2(C)[C@@H](CC[C@@H]3[C@@H]2CC[C@]2(C)C(n4ccnn4)=CC[C@@H]32)C1 | ≤ 11 | – | – | ≤ 15 | – | ≥ 80 | –
C[C@]12CCC(=O)C=C1C(F)CC1[C@@H]2CC[C@]2(C)C(c3cccnc3)=CC[C@@H]12 (single isomer, unassigned) | ≤ 11 | – | ≥ 50 | ≤ 15 | 1 to 50 | – | –
C[C@]12CC[C@H]3[C@@H](CC(CO)C4=CC(=O)CC[C@@]43C)C1=CC=C2c1cccnc1 (some centres undefined) | ≤ 11 | > 100 | ≥ 50 | – | – | – | –
C[C@]12CCC(=O)C=C1C1CC1[C@@H]1[C@@H]2CC[C@]2(C)C(c3cncc(F)c3)=CC[C@@H]12 (some centres undefined) | ≤ 11 | – | ≥ 50 | ≤ 15 | 1 to 50 | – | –
CCC1C[C@@H]2[C@H](CC[C@]3(C)C(c4cccnc4)=CC[C@@H]23)[C@@]2(C)CCC(=O)C=C12 (some centres undefined) | – | 10 to 100 | 10 to 50 | – | – | – | –
C[C@]12CCC(=O)C=C1C1CC1[C@@H]1[C@@H]2CC[C@]2(C)C(c3cccnc3)=CC[C@@H]12 (some centres undefined) | – | > 100 | ≥ 50 | – | 1 to 50 | – | –
CC1C[C@@H]2[C@H](CC[C@]3(C)C(c4cccnc4)CC[C@@H]23)[C@@]2(C)CCC(=O)C=C12 (some centres undefined) | – | ≤ 10 | – | – | 1 to 50 | – | –
C[C@]12CC[C@H]3[C@@H](C=CC4=C(O)C(=O)CC[C@@]43C)C1=CC=C2c1cccnc1 | – | > 100 | ≥ 50 | – | 1 to 50 | – | –
C[C@]12CCNC(=O)C[C@@H]1CC[C@@H]1[C@@H]2CC[C@]2(C)C(n3ccnn3)=CC[C@@H]12 | ≤ 11 | – | – | ≤ 15 | ≥ 50 | ≥ 80 | 10 to 60
CC1C[C@@H]2[C@H](CC[C@]3(C)C(c4cccnc4)=CC[C@@H]23)[C@@]2(C)CC/C(=N\O)C=C12 (some centres undefined) | – | > 100 | 10 to 50 | – | 1 to 50 | – | –
C[C@]12CC[C@H]3[C@@H](CC=C4C[C@@H](O)CC[C@@]43C)C1=CC=C2c1cncc(F)c1 | ≤ 11 | – | ≥ 50 | ≤ 15 | 1 to 50 | – | –
CC1CC2C3=CC=C(c4cncc(F)c4)[C@@]3(C)CC[C@@H]2[C@@]2(C)CCN(C)C(=O)C=C12 (single isomer, unassigned) | – | > 100 | – | – | – | – | –
